Values quoted from earlier work in US20060035976A1, “Methods of preventing headaches with norepinephrine precursors” (priority 2002, published 2006).

Assays:
migraine attacks = settings: 100 mg/day; person with Parkinson's disease, concurrently on L-DOPA, benserazide and amantadine
pain = settings: 100 mg; including a patient experiencing a cluster headache

Row | time that increased plasma levels of DOPS and NE remain (after oral administration of DOPS) | time of peak NE levels (after oral ingestion of DOPS) [h] | time of peak plasma levels of DOPS (after oral ingestion of DOPS) [h] | SMILES | specific uptake of DOPS (microvessel preparations) | migraine attacks (patient report) (migraine attacks) | analgesic effects (pain)
1 | at least 12 hours | 5 | 3 | N[C@H](C(=O)O)[C@H](O)c1ccc(O)c(O)c1 [DOPS, Threo-3-(3,4-dihydroxyphenyl)serine] | Specific uptake of DOPS has also been demonstrated | – | –
2 | – | – | – | N[C@H](C(=O)O)[C@H](O)c1ccc(O)c(O)c1 [L-DOPS] | – | migraine attacks were resolved | alleged analgesic effects
